This is an account of results in patent US20240398732A1, “Treating Cancers with Combinations of Spironolactone and Acylfulvenes” (LANTERN PHARMA INC., priority 2021, published 2024).

The subject of data set [1] is RPMI 8226 human myeloma cell lines. Nature of the data set: RPMI 8226 cell growth / cytotoxicity in vitro. In kind it is cell-based.
For data set [2], the system named is U87 (glioblastoma cell line). The data set can be described thus: U87 cell growth / survival / viability in vitro. The data set is classed as cell-based.
For data set [3], the system named is M1123 (glioblastoma cell line). The data set can be described thus: M1123 cell viability in vitro. In kind it is cell-based.
In data set [4] the test system is Mayo39 (Glioblastoma cell line). Nature of the data set: Mayo39 cell viability in vitro. In kind it is cell-based.
The subject of data set [5] is U87, M1123 and Mayo39 glioblastoma cultures. The data set can be described thus: GBM cell viability, pooled statement on IC50 shift. The data set is classed as cell-based. As to conditions: with 5 μM Spironolactone.
The subject of data set [6] is subcutaneous U87 xenograft tumors. The note with it: beginning on ~day 25.
Description: (§1) SCID mice bearing pre-established subcutaneous U87 xenograft tumors were treated with Spironolactone alone, LP-184 alone or their combination. Spironolactone treatment began on post implantation day 8 at 25 mg/kg intraperitoneally 5 days per week, and LP-184 on day 9 at 4 mg/kg intravenously every other day for 4 doses.
The test system is the same in data set [7]. The data set can be described thus: Subcutaneous U87 xenograft in SCID mice. As to conditions: Spironolactone 25 mg/kg i.p. 5 days per week from day 8; LP-184 4 mg/kg i.v. every other day for 4 doses from day 9.
Description: as §1
Data set [8] has as its system CHLA-06 (atypical teratoid rhabdoid tumor cell line). Nature of the data set: CHLA-06 cell growth / survival in vitro. The note with it: spironolactone alone (10 μM). The data set is classed as cell-based.
The test system of data set [9] is CAKI-2 (papillary renal cell carcinoma cell line). Nature of the data set: CAKI-2 cell growth / survival in vitro. The data set is classed as cell-based. As to conditions: spironolactone alone.
The target of a further data set is T1, ERCC3 (Homo sapiens, UniProt P19447).
T1 construct: endogenous in cells; host or cells: M1123, Mayo39, U87 glioblastoma cell lines
T1 sequence (P19447 1-782): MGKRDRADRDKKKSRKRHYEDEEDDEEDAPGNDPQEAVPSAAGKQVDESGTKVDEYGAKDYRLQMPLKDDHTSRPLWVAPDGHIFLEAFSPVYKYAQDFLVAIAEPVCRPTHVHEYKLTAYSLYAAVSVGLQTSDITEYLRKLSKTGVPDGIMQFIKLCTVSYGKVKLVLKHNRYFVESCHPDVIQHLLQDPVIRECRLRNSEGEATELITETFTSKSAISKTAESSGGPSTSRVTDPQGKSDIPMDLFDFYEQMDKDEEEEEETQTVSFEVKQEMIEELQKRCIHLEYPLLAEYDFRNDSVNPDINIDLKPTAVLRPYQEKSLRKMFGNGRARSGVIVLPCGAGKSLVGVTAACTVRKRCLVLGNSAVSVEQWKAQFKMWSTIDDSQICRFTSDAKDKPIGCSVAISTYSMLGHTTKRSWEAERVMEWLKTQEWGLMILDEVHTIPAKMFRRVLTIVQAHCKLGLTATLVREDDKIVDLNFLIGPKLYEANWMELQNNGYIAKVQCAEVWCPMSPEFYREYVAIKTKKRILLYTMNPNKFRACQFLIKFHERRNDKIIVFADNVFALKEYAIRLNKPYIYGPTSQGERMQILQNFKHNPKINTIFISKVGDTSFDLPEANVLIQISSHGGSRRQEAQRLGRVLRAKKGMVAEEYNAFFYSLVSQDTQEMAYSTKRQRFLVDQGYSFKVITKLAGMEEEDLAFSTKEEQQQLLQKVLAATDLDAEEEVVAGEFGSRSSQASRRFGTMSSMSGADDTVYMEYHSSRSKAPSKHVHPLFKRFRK
Nature of the data set: ERCC3 western blot in glioblastoma cell lines. The note with it: 10 μM spironolactone, over 24-72 hours. The data set is classed as cell-based. The method, then: Representative images show quantification of ERCC3 western blot intensity with significant Spironolactone-mediated ERCC3 downregulation over 24-72 hours in different glioblastoma cell lines.
A general note: Immunoblotting shows a protein as a band on a membrane.

Data set [10] relates to 22RV1 (prostate cell line). The data set can be described thus: 22RV1 cell growth / survival in vitro. As to conditions: 10 μM spironolactone alone. In kind it is cell-based.
Data set [11] concerns ACHN (renal cell carcinoma cell line). The data set can be described thus: ACHN cell growth / survival in vitro. The data set is classed as cell-based. As to conditions: 10 μM spironolactone alone.
The mark [12] stands for this setting: LP-184 alone, read-out: LP-184 alone IC50 [mean value.
Where [13] appears, read: with 5 uM Spironolactone, read-out: LP-184 IC50 [mean value, nM] in combination with 5 uM Spironolactone.

pIC50: −log10 of the molar value. “Also recorded” adds a separate entry of the source. Like-named read-outs stand apart in the source and are kept apart here.

`CC1=C(CN(O)C(N)=O)C2=C(C)C3(CC3)[C@](C)(O)C(=O)C2=C1` [LP-284, (+)-hydroxyureamethyl acylfulvene]: the “reduction of LP-284 IC50” value in data set [1] (by 10 μM spironolactone) came out at 2.4 fold.

Regarding `CC1=C(CN(O)C(N)=O)C2=C(C)C3(CC3)[C@@](C)(O)C(=O)C2=C1` [LP-184, (−)-hydroxyureamethyl acylfulvene], the pIC50 (commonly −log10 of the IC50, conventionally taken in molar units) is 6.60 in data set [2] (Homo sapiens, U-87 MG, LP-184 alone, read-out: LP-184 alone IC50 [mean value); 6.82 in data set [3] (setting [12]); 6.50 in data set [4] (setting [12]). The IC50 (in general, the concentration needed to halve the response being measured) in data set [2] (Homo sapiens, U-87 MG, with 5 uM Spironolactone, read-out: LP-184 IC50 [mean value, nM] in combination with 5 uM Spironolactone) worked out at 37.6 nM; in [3] (setting [13]), 39.7 nM; in data set [4] (setting [13]), 94.3 nM. Besides, the “decrease in LP-184 IC50s” value in [5] is 3-6 fold. In addition, the “tumor regrowth (animals)” value in data set [6] is 5/5. Moreover, in data set [7], the “tumor growth / tumor regression” value is “complete or near complete tumor regression”.

For the compound `CC(=O)SC1CC2=CC(=O)CCC2(C)C2CCC3(C)C(CCC34CCC(=O)O4)C12` (stereo not drawn) [Spironolactone, 7α-Acetylthiospirolactone], the figures for the growth rates entry in data set [2] (spironolactone alone), in data set [8] and in [9] were “did not substantially change the growth rates”, “did not substantially change the growth rates; also recorded: did not change the cell growth rates” and “did not substantially change the growth rates”, respectively. Besides, the cytotoxicity result in [1] (10 μM spironolactone treatment alone) is “did not cause cytotoxicity”. The “ERCC3 protein level (western blot)” value at ERCC3 (M1123), on ERCC3 (Mayo39) and on ERCC3 (U87) was “time-dependent depletion” throughout. The cell growth rates result in data set [10] and in [11] was “did not change the cell growth rates” in each case. Further, the “tumor growth / tumor regression” value in data set [7] is “no effect on tumor growth”.
